Data as given in PMC12589998, “Development and validation of a UHPLC-QqQ-MS/MS method for simultaneous determination of fifteen major components from Oroxyli seed extract in rat plasma and its application in the pharmacokinetic study” (Frontiers in Pharmacology, 2025).
Entries after “also recorded” stand apart in the source; their conditions may differ. Like-named read-outs stand apart in the source and are kept apart here.

Legend:
[1] = Stability of the analytes in rat plasma samples under storage conditions; type: physicochemical; details: n = 6
Method: The bioanalytical method validation was evaluated for specificity, linearity, sensitivity, precision and accuracy, recovery, matrix effect, and stability to ensure compliance with the U.S. Food and Drug Administration (FDA) guidance on precise quantitative analysis ([Center for Drug Evaluation and Research of the U.S., 2018]). The assessment of specificity was conducted by comparing the chromatograms obtained from blank plasma, blank plasma spiked with the target components, and samples gathered following the oral administration of OS extract. Calibration curves were constructed by plotting the ratio for the peak area of the analyte to IS versus the concentration, with 1/x^2 serving as the weighting factor. The lower limit of quantification (LLOQ) was defined as the concentration at which a signal to noise ratio of […] 10 was achievable. The evaluation of precision and accuracy involved the analysis of six QC samples, both within a single day and over 3 consecutive days. Accuracy was expressed as the relative error (RE), whereas precision was gauged via relative standard deviation (RSD). Extraction recovery was ascertained by juxtaposing the responses of analytes in extracted samples against those in samples that were spiked post-extraction. The matrix effect was scrutinized by determining the ratio of the responses of the analytes in post-extraction spiked samples to those in the mixed standard solution. The stability of the analytes in plasma samples was explored under diverse conditions: encompassing a 12-h period in an autosampler, a 4-h interval at room temperature, three cycles of freezing–thawing, and a 7-day duration at −80 °C.
The retention times of the analyte peaks were consistent with those in the spiked samples. […] The LLOQs for chrysin, chrysin-7-O-β-D-glucuronide, hispidulin, wogonoside, quercetin, quercetin-7-O-β-D-glucoside, baicalin, baicalein, acacetin, oroxin A, oroxin B, oroxylin A, oroxylin A-7-O-β-D-glucuronide, apigenin, and scutellarein were 1.0, 2.0, 1.0, 0.3, 1.0, 0.1, 9.0, 6.0, 0.3, 6.0, 4.0, 1.0, 2.0, 0.5, and 0.3 ng/mL, respectively. In Supplementary Table S2, the RE for accuracy is between −13.77% and 12.55%, and the RSD for precision is below 14.55% (both intra- and inter-day). […] The matrix effect varied from 60.15% to 115.53%, with RSD values below 10.54%. In Supplementary Table S4, the RSD values for stability of the analytes are found to be lower than 13.98%, meaning that these components were stable under the following conditions: encompassing a 12-h period in an autosampler, a 4-h interval at room temperature, three cycles of freezing and thawing, and a 7-day duration at −80 °C.

[2] = Pharmacokinetic study in rats after oral administration of OS extract (UHPLC-QqQ-MS/MS of plasma); type: in vivo, rat; details: for concentration at 0.5 h / AUC(0-t) / AUC(0-inf) / Cmax / half-life / Tmax: male
Method: The UHPLC-QqQ-MS/MS system consisted of a 1290 UHPLC and a 6470 mass spectrometer (Agilent Technologies). Chromatographic separation was realized on utilizing an ACQUITY UPLC BEH C18 column (2.1 × 100 mm, 1.7 μm) maintained at 35 °C. The mobile phase consisting of 0.1% formic acid in water (A) and acetonitrile (B) was utilized with the elution program set at 0 min–1 min, 5% B–30% B; 1 min–4 min, 30% B– 50% B; 4 min–8 min, and 50% B–90% B. The injection volume was 5 μL, and the flow rate was 0.3 mL/min. The mass spectrometry parameters in the negative ion mode, gas temperature, flow rate, and nebulizer pressure were 300 °C, 7 L/min, and 35 psi, respectively. The mass spectra properties of the 15 analytes and the IS are illustrated in Table 1.
To 100 μL of the plasma sample, 20 μL of methanol, 20 μL of IS solution (methylparaben, 1 μg/mL), and 5 μL of formic acid were added and vortexed for a duration of 2 min. Subsequently, the mixture underwent extraction with 800 μL of acetonitrile for 3 min. Following 10 min of centrifugation at 12,000 g, the supernatant was collected and evaporated to dryness under N2 to obtain the residue. Finally, the residue was reconstituted in 50% methanol (100 μL) and utilized for analysis.
Before initiating the study, six male SD rats underwent a 12-h fasting period, during which they were granted unrestricted access to water. Then, the rats were administered an oral dose of 3 g/kg of the OS extract, which had been dissolved in 0.5% CMC-Na aqueous solution. Blood samples, approximately 200 μL each, were collected at various time points: before administration and at 0.03, 0.08, 0.17, 0.25, 0.5, 0.75, 1, 2, 4, 6, 8, 10, 12, 24, 36, and 48 h post-administration. Following 10 min of centrifugation at 6,000 g, the resultant samples were stored at −80 °C.
The developed method was effectively applied to study the pharmacokinetics in rats following oral administration of the OS extract. […] This was likely due to their low concentrations in the OS extract. Ultimately, nine components (chrysin, chrysin-7-O-β-D-glucuronide, baicalin, baicalein, oroxin A, oroxin B, oroxylin A, oroxylin A-7-O-β-D-glucuronide, and scutellarein) were successfully fitted with pharmacokinetic parameters. The average plasma concentration–time profiles of these substances are depicted in Figure 3. […] All data were presented as the mean ± standard deviation (Mean ± SD).

[3] = spiked concentration 1600 ng/mL
[4] = rat plasma, oral 3 g/kg OS extract, n = 6, mean ± SD, read-out: Tmax

| Compound | Measured, -80°C for 7 days ([1]; spiked concentration 10 ng/mL) [ng/mL] | Measured, Autosampler for 12 h ([1]; spiked concentration 10 ng/mL) [ng/mL] | Measured, Room temperature for 4 h ([1]; spiked concentration 10 ng/mL) [ng/mL] | Measured, Three freeze-thaw cycles ([1]; spiked concentration 10 ng/mL) [ng/mL] | Measured, -80°C for 7 days ([1]; spiked concentration 100 ng/mL) [ng/mL] | Measured, Autosampler for 12 h ([1]; spiked concentration 100 ng/mL) [ng/mL] | Measured, Room temperature for 4 h ([1]; spiked concentration 100 ng/mL) [ng/mL] | Measured, Three freeze-thaw cycles ([1]; spiked concentration 100 ng/mL) [ng/mL] | Measured, -80°C for 7 days [1, 3] [ng/mL] | Measured, Autosampler for 12 h [1, 3] [ng/mL] | Measured, Room temperature for 4 h [1, 3] [ng/mL] | Measured, Three freeze-thaw cycles [1, 3] [ng/mL] | Tmax [2, 4] [h] | concentration at 0.5 h ([2]; SD, rat, in vivo, po) [ng/mL] | also measured |
| --- | --- | --- | --- | --- | --- | --- | --- | --- | --- | --- | --- | --- | --- | --- | --- |
| COc1c(O[C@@H]2O[C@H](C(=O)O)[C@@H](O)[C@H](O)[C@H]2O)cc2oc(-c3ccccc3)cc(=O)c2c1O [Oroxylin A-7-O-β-D-glucuronide, oroxylin A-7-O-β-D-glucuronide] | 9.25 ± 0.47 | 9.44 ± 1.32 | 11.03 ± 0.43 | 9.21 ± 0.83 | 95.03 ± 7.93 | 98.52 ± 5.58 | 108.86 ± 4.87 | 90.02 ± 5.94 | 1626.95 ± 164.45 | 1793.11 ± 46.98 | 1799.31 ± 27.98 | 1550.12 ± 77.94 | 9.6 ± 1.67 |  | concentration at 0.5 h ([2]; SD, 3 g/kg, rat plasma collected 0.5 h after oral administration of the OS extract, read-out: Concentration printed in MRM chromatogram of plasma sample (Figure 2C)): 61 ng/mL; AUC(0-t) ([2]; rat plasma, oral 3 g/kg OS extract, n = 6, mean ± SD, read-out: AUC(0-t)): 11400 ng·h/mL; AUC(0-inf) ([2]; rat plasma, oral 3 g/kg OS extract, n = 6, mean ± SD, read-out: AUC(0-∞)): 11600 ng·h/mL; Cmax ([2]; rat plasma, oral 3 g/kg OS extract, n = 6, mean ± SD, read-out: Cmax): 912 ± 350 ng/mL; half-life ([2]; rat plasma, oral 3 g/kg OS extract, n = 6, mean ± SD, read-out: T1/2 (converted)): 7.22 ± 1.04 h; Shape of plasma concentration-time curve ([2]; rat plasma after oral OS extract): significant bimodal phenomena; also recorded: clear bimodal phenomena |
| O=c1cc(-c2ccc(O)cc2)oc2cc(O)cc(O)c12 [Apigenin, apigenin] |  |  |  |  |  |  |  |  |  |  |  |  |  | 45 | Measured, -80°C for 7 days ([1]; spiked concentration 2 ng/mL): 1.93 ± 0.09 ng/mL; Measured, Autosampler for 12 h ([1]; spiked concentration 2 ng/mL): 2.00 ± 0.16 ng/mL; Measured, Room temperature for 4 h ([1]; spiked concentration 2 ng/mL): 2.23 ± 0.11 ng/mL; Measured, Three freeze-thaw cycles ([1]; spiked concentration 2 ng/mL): 2.07 ± 0.13 ng/mL; Measured, -80°C for 7 days ([1]; spiked concentration 20 ng/mL): 20.16 ± 2.35 ng/mL; Measured, Autosampler for 12 h ([1]; spiked concentration 20 ng/mL): 20.39 ± 1.55 ng/mL; Measured, Room temperature for 4 h ([1]; spiked concentration 20 ng/mL): 18.37 ± 0.87 ng/mL; Measured, Three freeze-thaw cycles ([1]; spiked concentration 20 ng/mL): 18.24 ± 1.16 ng/mL; Measured, -80°C for 7 days ([1]; spiked concentration 320 ng/mL): 288.58 ± 21.30 ng/mL; Measured, Autosampler for 12 h ([1]; spiked concentration 320 ng/mL): 316.15 ± 18.09 ng/mL; Measured, Room temperature for 4 h ([1]; spiked concentration 320 ng/mL): 310.13 ± 19.51 ng/mL; Measured, Three freeze-thaw cycles ([1]; spiked concentration 320 ng/mL): 306.45 ± 18.15 ng/mL; Plasma levels ([2]; rat, in vivo, po): too weak to obtain comprehensive pharmacokinetic curves |
| O=c1cc(-c2ccccc2)oc2cc(O)cc(O)c12 [Chrysin, chrysin] | 9.25 ± 0.47 | 11.26 ± 1.24 | 10.87 ± 0.54 | 9.15 ± 0.40 | 91.73 ± 5.32 | 101.85 ± 8.18 | 99.57 ± 5.36 | 90.99 ± 3.81 | 1539.20 ± 116.03 | 1687.80 ± 77.00 | 1601.59 ± 94.45 | 1525.21 ± 82.94 |  | 73 | AUC(0-inf) ([2]; SD, rat, in vivo, po, 3 g/kg): 589 ± 303 ng·h/mL; AUC(0-t) ([2]; SD, rat, in vivo, po, 3 g/kg): 550 ± 294 ng·h/mL; Cmax ([2]; SD, rat, in vivo, po, 3 g/kg): 519 ± 197 ng/mL; Tmax ([2]; SD, rat, in vivo, po, 3 g/kg): 0.06 ± 0.03 h; half-life ([2]; SD, rat, in vivo, po, 3 g/kg): 4.25 ± 2.01 h |
| OCc1ccccc1O[C@@H]1O[C@H](CO)[C@@H](O)[C@H](O)[C@H]1O [salicin] |  |  |  |  |  |  |  |  |  |  |  |  | ~10 |  |  |
